Laboratory results published in the SangsterLogP compilation.

Legend:
[1] = method code SF-AS, from Dallet, P.; Dubost, J.; Colleter, J.; Audry, E.; Creuzet, M. (1985). QSAR in a series of alpha-adrenolitic molecules: optimization of physicochemical parameters. Eur J Med Chem, 20(6)551-557.
[2] = method code SF-AS, from DOI: 10.1016/0147-6513(87)90041-8, PMID: 3830021
[3] = method code SF-RC, from DOI: 10.1016/j.nucmedbio.2006.06.006, PMID: 16934700; conditions: pH 7.4
[4] = not given; remark: listed apart in the source
[5] = not given; remark: listed apart in the source
[6] = not given; remark: listed apart in the source
[7] = method code SF-AS, from DOI: 10.1007/bf00165040, PMID: 3033523; conditions: pH 7.4
[8] = method code SF-AS, from DOI: 10.1093/chemse/13.4.619; conditions: pH 7.2
[9] = method code SF-AS, from DOI: 10.1021/jm00254a011, PMID: 4845376
[10] = method code SF-RC, from DOI: 10.1021/jm301492y, PMID: 23214511; conditions: pH 7.4
[11] = not given; remark: listed apart in the source
[12] = not given; remark: listed apart in the source
[13] = not given; remark: listed apart in the source
[14] = method code SF-GLC, from DOI: 10.1016/s0045-6535(02)00841-x, PMID: 12615110
[15] = not given; remark: listed apart in the source
[16] = from Pratesi, P.; Villa, L.; Ferri, V.; DeMicheli, C.; Grana, E.; Grieco, C.; Silipo, C.; Vittoria, A. (1979). On the additive-constitutive properties of substituent hydrophobic parameters in a set of …
[17] = method code SF-AS, from DOI: 10.1016/s0003-2670(01)80868-0
[18] = method code SF-AS, from PMID: 3699148; conditions: pH 7.4

## Cc1ccc([N+](=O)[O-])cc1C
other
  logP: 2.91

## CC(=O)Oc1cc(C(C)C)c(OCCN(C)C)cc1C
[1]
  logP: 3.17

## N#CCCN(CCO)c1ccc(/N=N/c2ccc([N+](=O)[O-])cc2Cl)cc1
[2]
  logP: 3.9

## FCCNc1ccc(-c2cc3ccccc3s2)cc1
[3]
  logD: 3.46

## CC(C)(O)C(C)(C)O
[4]
  logP: -0.05

## OCCCCCO
[4]
  logP: -0.43

## Cc1c(Cl)cccc1Cl
[5]
  logP: 4.29

## Cc1cc(C)c(C)cc1C
[6]
  logP: 4.24

## CSc1nc2c(N)ncnc2n1C1OC2COP(=O)(OCc3ccccc3)OC2C1O (configuration not stated)
[7]
  logD: 1.62

## O/N=C/c1cccnc1
[8]
  logD: 0.68

## O=C1NCCN1c1ncc([N+](=O)[O-])s1
[9]
  logP: 0.91

## NC(=O)c1cccc(-c2cccc(C(=O)NC3CCCCC3)c2)c1
[10]
  logD: 3.61

## O=C(CCCCN1CCC(O)(c2ccc(Cl)cc2)CC1)c1ccc(F)cc1
[11]
  logP: 3.81

## Nc1ncnc2c1nc(Sc1ccc(Cl)cc1)n2C1OC2COP(=O)(OCc3ccccc3)OC2C1O (configuration not stated)
[7]
  logD: 2.24

## CC(=O)N(CC(O)CO)c1c(I)c(C(=O)NCCO)c(I)c(C(=O)NCCO)c1I (configuration not stated)
[12]
  logP: -1.84

## Cc1cc(OCCN(C)C)c(C(C)C)cc1OC1CCCCC1=O (configuration not stated)
[1]
  logP: 3.63

## C=C(C)C(=O)OCCCCCCCC(C)C
[13]
  logP: 4.92

## Brc1cc(Br)c(Oc2cc(Br)c(Br)cc2Br)cc1Br
[14]
  logP: 7.9

## CC(=O)Nc1c(I)c(C(=O)N(C)CC(O)CO)c(I)c(C(=O)N(C)CC(O)CO)c1I (configuration not stated)
[12]
  logP: -2.14

## CCCCC(CC)Cn1c(O)c(C#N)c(C)c(/N=N/c2ccccc2[N+](=O)[O-])c1=O (configuration not stated)
[2]
  logP: 4.5

## CCCCN(CCOC(C)=O)c1ccc(/N=N/c2c(C#N)cc([N+](=O)[O-])cc2C#N)c(C)c1
[2]
  logP: 4

## Cc1ccc(C(C)C)c(OCCN(C)C)c1
[1]
  logP: 3.79

## Brc1ccc(Oc2cc(Br)c(Br)cc2Br)c(Br)c1
[14]
  logP: 7.32

## C=C(C)C(=O)OCC(F)(F)F
[13]
  logP: 1.56

## CSC1=NCCN1c1ncc([N+](=O)[O-])s1
[9]
  logP: 1.78

## O=C1NC(Cc2c[nH]c3ccccc23)C(=O)N1Cc1cccc2ccccc12 (configuration not stated)
[15]
  logP: 3.03

## O=C(NC1CCCCC1)c1cccc(C2=NCCO2)c1
[10]
  logD: 3.01

## Brc1ccc(Oc2ccc(Br)cc2Br)cc1
[14]
  logP: 5.94

## O=[N+]([O-])c1ccc(O)c([N+](=O)[O-])c1
[6]
  logP: 1.79

## CCCN1C(=O)NC(c2ccccc2)(c2ccccc2)C1=O
[15]
  logP: 2.86

## C=C(C)C(=O)OCC(C)(C)COC(=O)C(=C)C
[13]
  logP: 2.79

## CC(=O)N(C)c1c(I)c(C(=O)NCC(O)CO)c(I)c(C(=O)NCC(O)CO)c1I (configuration not stated)
[12]
  logP: -2.13

## CC(C)CC(N)=O
[4]
  logP: 0.19

## CN(C)c1ccc(-c2cc3ccccc3s2)cc1
[3]
  logD: 3.44

## C=CC#N
[16]
  logP: 0.25

## O=C1NCCN1c1ccc([N+](=O)[O-])o1
[9]
  logP: 0.25

## CC(C)C(=O)CC(=O)C(C)C
[17]
  logP: 2.22

## CC(C)(C)Sc1nc2c(N)ncnc2n1C1OC2COP(=O)(Oc3ccccc3)OC2C1O (configuration not stated)
[7]
  logD: 2.05

## Nc1ccc(-c2cc3ccccc3s2)cc1
[3]
  logD: 2.87

## c1ccc(-c2cccnc2)nc1
[8]
  logD: 1.46

## O=c1cc(-c2ccccc2)oc2c1ccc1ccccc12
[6]
  logP: 4.82

## CCCCCCNC(=O)c1cccc(C2=NCCO2)c1
[10]
  logD: 3.33

## CCC(C)(C)N
[4]
  logP: 0.9

## NC(=O)c1ccccc1NCC(O)CO (configuration not stated)
[18]
  logD: -0.8

## CC(=O)CCC(=O)O
[16]
  logP: -0.49

## O=C(NC1CCCC1)c1cccc(C2=NCCO2)c1
[10]
  logD: 2.35

## O=[N+]([O-])c1cccc(Cl)c1Cl
other
  logP: 3.01

## Cc1cc(OCCN(C)C)c(C(C)C)cc1O
[1]
  logP: 2.93

## Brc1ccsc1
[6]
  logP: 2.59

## c1ccc(-c2ccncc2)nc1
[8]
  logD: 1.58

## Cc1ccc(Cl)cc1[N+](=O)[O-]
other
  logP: 3.05

## CC(=O)CC(=O)C(C)(C)C
[17]
  logP: 1.67

## COC(=O)c1cccnc1
[8]
  logD: 0.72

## CNCCOc1cc(C)c(O)cc1C(C)C
[1]
  logP: 2.35

## CCn1c(O)c(C#N)c(C)c(/N=N/c2ccc(Cl)cc2[N+](=O)[O-])c1=O
[2]
  logP: 3.4

## CC(=O)CC(C)=O
[17]
  logP: 0.14

## Nc1cc(Cl)c(Cl)c(Cl)c1Cl
[5]
  logP: 3.94

## Nc1ncnc2c1nc(Br)n2C1OC2COP(=O)(Oc3ccccc3)OC2C1O (configuration not stated)
[7]
  logD: 1.58

## Oc1ccc(-c2cc3ccccc3s2)cc1
[3]
  logD: 2.99

## CC(=O)N(CCO)c1c(I)c(C(=O)NCC(O)CO)c(I)c(C(=O)NCC(O)CO)c1I (configuration not stated)
[12]
  logP: -2.4

## c1ccc(C2CO2)cc1 (configuration not stated)
[16]
  logP: 1.84

## O=[N+]([O-])c1cnc(N2CCNC2=S)s1
[9]
  logP: 1.7

## ClC(Cl)(Cl)C(Cl)(Cl)Cl
[5]
  logP: 3.82

## O=C(NC1CCCC1)c1ccc(O)c(-c2ccccc2)c1
[10]
  logD: 2.8

## O=C(CCCCCN1CCC(O)(c2ccc(Cl)cc2)CC1)c1ccc(F)cc1
[11]
  logP: 4.16

## O=C(CCN1CCC(O)(c2ccc(Cl)cc2)CC1)c1ccc(F)cc1
[11]
  logP: 3.24

## CC(=O)Nc1cc(NCC(C)O)c(Cl)cc1/N=N/c1ccc([N+](=O)[O-])cc1Cl (configuration not stated)
[2]
  logP: 4

## CC(=O)Nc1c(I)c(C(=O)NC(CO)CO)c(I)c(C(=O)NC(CO)CO)c1I
[12]
  logP: -2.22

## CNc1ccc(-c2cc3ccccc3s2)cc1
[3]
  logD: 3.2

## Brc1ccc(Oc2ccccc2Br)c(Br)c1
[14]
  logP: 5.74

## CSC1=NCCN1c1ccc([N+](=O)[O-])o1
[9]
  logP: 1.19

## COc1cccc(OC)c1OCCN(C)CCOc1cc(C)c(O)cc1C(C)C
[1]
  logP: 3.12

## Nc1ncnc2c1nc(Sc1ccccc1)n2C1OC2COP(=O)(OCc3ccccc3)OC2C1O (configuration not stated)
[7]
  logD: 1.92

## CCC(=O)CC(=O)CC
[17]
  logP: 1.12

## c1ccc(-c2ccc(-c3ccccc3)cc2)cc1
[6]
  logP: 6.03

## OC1(c2ccc(Cl)cc2)CCN(CCCSc2ccc(F)cc2)CC1
[11]
  logP: 4.17

## CCCCCCN1C(=O)NC(Cc2c[nH]c3ccccc23)C1=O (configuration not stated)
[15]
  logP: 3.13

## Brc1ccc(Oc2ccc(Br)c(Br)c2Br)c(Br)c1
[14]
  logP: 7.37

## CCCCn1c(=O)c2c(N)c3c(=O)c4ccccc4c(=O)c3c(N)c2c1=O
[2]
  logP: 4

## OC(CCCN1CCC(O)(c2ccc(Cl)cc2)CC1)c1ccc(F)cc1 (configuration not stated)
[11]
  logP: 3.26

## CCCCOCCNc1ccccc1C(N)=O
[18]
  logD: 2.27

## CC(O)CNc1ccccc1C(N)=O (configuration not stated)
[18]
  logD: 0.62

## CC(=O)N(CCO)c1c(I)c(C(=O)N(C)CC(O)CO)c(I)c(C(=O)N(C)CC(O)CO)c1I (configuration not stated)
[12]
  logP: -2.33

## O=[N+]([O-])c1cc(Cl)cc(Cl)c1
other
  logP: 3.13

## O=C(NC1CCC1)c1ccc(O)c(-c2ccccc2)c1
[10]
  logD: 3.42

## NC(=O)c1ccccc1NCCCO
[18]
  logD: 0.7

## CCCCCCN1C(=O)NC(c2ccc(Br)cc2)(c2ccc(Br)cc2)C1=O
[15]
  logP: 6.39

## Cc1cccc([N+](=O)[O-])c1C
other
  logP: 2.83

## Nc1ccccc1Cl
[5]
  logP: 1.74

## Nc1ncnc2c1nc(SCc1ccccc1)n2[C@@H]1O[C@@H]2COP(=O)(O)O[C@H]2[C@H]1O
[7]
  logD: -1.15

## CC(O)CCO (configuration not stated)
[4]
  logP: -0.79

## Cc1ccc(Cl)cc1
[5]
  logP: 3.42

## O=C1NC(c2ccc(Br)cc2)(c2ccc(Br)cc2)C(=O)N1CCN1CCOCC1
[15]
  logP: 4.59

## CC(C)c1ccc(C(=O)CCCN2CCC(O)(c3ccc(Cl)cc3)CC2)cc1
[11]
  logP: 4.2

## FCCOc1ccc(-c2cc3ccccc3s2)cc1
[3]
  logD: 2.83

## CCCCOCCNc1ccc(Cl)cc1C(N)=O
[18]
  logD: 2.99

## O=C(O)CCCC(=O)O
[16]
  logP: -0.29

## OCCNc1ccccc1
[16]
  logP: 0.82

## CCCCCCCN1C(=O)NC(c2ccc(Br)cc2)(c2ccc(Br)cc2)C1=O
[15]
  logP: 6.95

## COC(=O)c1ccccn1
[8]
  logD: 0.4

## Cc1ccccc1OCCNc1ccccc1C(N)=O
[18]
  logD: 2.94

## CCCC(=O)CC(=O)CCC
[17]
  logP: 2.23
